Measurements: ChEMBL document CHEMBL5723582, “Data for DCP probe T-10430” (2024)

Assays:
[1] = target: Proteinase-activated receptor 2 (Homo sapiens) (UniProt P55085); assay: RLU of F2RL1 at 1.0 µM in the […] PRESTO-Tango GPCRome screen; settings: Compound concentration 1.0 uM
[2] = target: Probable G-protein coupled receptor 32 (Homo sapiens) (UniProt O75388); assay: RLU of GPR32 at 1.0 µM in the […] PRESTO-Tango GPCRome screen; settings: Compound concentration 1.0 uM
[3] = target: Neuromedin-K receptor (Homo sapiens) (UniProt P29371); assay: RLU of TACR3 at 1.0 µM in the […] PRESTO-Tango GPCRome screen; settings: Compound concentration 1.0 uM
Sequence of Neuromedin-K receptor (Homo sapiens) (P29371 whole entry): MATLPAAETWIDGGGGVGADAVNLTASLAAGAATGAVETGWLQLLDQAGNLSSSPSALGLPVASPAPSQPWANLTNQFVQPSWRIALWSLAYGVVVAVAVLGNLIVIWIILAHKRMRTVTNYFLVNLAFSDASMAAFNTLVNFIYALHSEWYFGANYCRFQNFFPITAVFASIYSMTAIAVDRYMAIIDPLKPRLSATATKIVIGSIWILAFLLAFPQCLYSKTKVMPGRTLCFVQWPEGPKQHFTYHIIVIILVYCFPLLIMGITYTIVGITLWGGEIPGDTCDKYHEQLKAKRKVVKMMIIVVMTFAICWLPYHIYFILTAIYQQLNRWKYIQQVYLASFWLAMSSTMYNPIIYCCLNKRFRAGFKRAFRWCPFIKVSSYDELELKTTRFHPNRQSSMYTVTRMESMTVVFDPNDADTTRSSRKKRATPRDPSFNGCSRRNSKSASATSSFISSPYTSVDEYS

[4] = target: Gonadotropin-releasing hormone receptor (Homo sapiens) (UniProt P30968); assay: RLU of GNRHR at 1.0 µM in the […] PRESTO-Tango GPCRome screen; settings: Compound concentration 1.0 uM
Sequence of Gonadotropin-releasing hormone receptor (Homo sapiens) (P30968 whole entry): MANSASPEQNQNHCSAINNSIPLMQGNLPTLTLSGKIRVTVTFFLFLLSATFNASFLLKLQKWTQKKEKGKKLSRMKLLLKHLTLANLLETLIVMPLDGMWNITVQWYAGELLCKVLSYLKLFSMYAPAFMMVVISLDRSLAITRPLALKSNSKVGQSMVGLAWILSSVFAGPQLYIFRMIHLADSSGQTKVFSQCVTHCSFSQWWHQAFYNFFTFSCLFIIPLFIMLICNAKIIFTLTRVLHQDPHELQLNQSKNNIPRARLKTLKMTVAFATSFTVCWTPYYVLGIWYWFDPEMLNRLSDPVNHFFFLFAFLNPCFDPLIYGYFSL

[5] = target: Galanin receptor type 1 (Homo sapiens) (UniProt P47211); assay: RLU of GAL1 at 1.0 µM in the […] PRESTO-Tango GPCRome screen; settings: Compound concentration 1.0 uM
[6] = target: G-protein coupled receptor 26 (Homo sapiens) (UniProt Q8NDV2); assay: RLU of GPR26 at 1.0 µM in the […] PRESTO-Tango GPCRome screen; settings: Compound concentration 1.0 uM
Sequence of G-protein coupled receptor 26 (Homo sapiens) (Q8NDV2 whole entry): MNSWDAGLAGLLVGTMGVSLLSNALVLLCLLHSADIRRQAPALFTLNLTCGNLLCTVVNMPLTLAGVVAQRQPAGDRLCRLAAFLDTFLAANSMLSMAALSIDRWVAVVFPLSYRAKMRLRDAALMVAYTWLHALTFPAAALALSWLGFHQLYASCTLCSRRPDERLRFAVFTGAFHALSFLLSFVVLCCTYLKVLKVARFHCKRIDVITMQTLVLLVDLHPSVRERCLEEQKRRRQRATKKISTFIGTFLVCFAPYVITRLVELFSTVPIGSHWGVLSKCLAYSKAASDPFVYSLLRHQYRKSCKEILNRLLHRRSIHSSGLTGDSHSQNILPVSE

[7] = target: Proteinase-activated receptor 1 (Homo sapiens) (UniProt P25116); assay: RLU of F2R at 1.0 µM in the […] PRESTO-Tango GPCRome screen; settings: Compound concentration 1.0 uM
[8] = target: Prokineticin receptor 1 (Homo sapiens) (UniProt Q8TCW9); assay: RLU of PK1 at 1.0 µM in the […] PRESTO-Tango GPCRome screen; settings: Compound concentration 1.0 uM
Sequence of Prokineticin receptor 1 (Homo sapiens) (Q8TCW9 whole entry): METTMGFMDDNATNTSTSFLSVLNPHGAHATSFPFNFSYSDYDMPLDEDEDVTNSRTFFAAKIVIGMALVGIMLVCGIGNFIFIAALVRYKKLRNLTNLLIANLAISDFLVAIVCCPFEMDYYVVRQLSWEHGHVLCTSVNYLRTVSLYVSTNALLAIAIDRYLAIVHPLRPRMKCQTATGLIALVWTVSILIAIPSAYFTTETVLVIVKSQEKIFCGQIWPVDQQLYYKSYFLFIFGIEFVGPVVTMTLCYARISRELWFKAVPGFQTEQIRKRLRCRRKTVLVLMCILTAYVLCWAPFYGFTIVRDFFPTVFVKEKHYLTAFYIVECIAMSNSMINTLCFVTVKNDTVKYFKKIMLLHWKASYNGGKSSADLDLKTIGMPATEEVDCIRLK

[9] = target: S-geranylgeranyl-glutathione receptor P2RY8 (Homo sapiens) (UniProt Q86VZ1); assay: RLU of P2RY8 at 1.0 µM in the […] PRESTO-Tango GPCRome screen; settings: Compound concentration 1.0 uM
[10] = target: Free fatty acid receptor 1 (Homo sapiens) (UniProt O14842); assay: RLU of FFA1 (GPR40) at 1.0 µM in the […] PRESTO-Tango GPCRome screen; settings: Compound concentration 1.0 uM
Sequence of Free fatty acid receptor 1 (Homo sapiens) (O14842 whole entry): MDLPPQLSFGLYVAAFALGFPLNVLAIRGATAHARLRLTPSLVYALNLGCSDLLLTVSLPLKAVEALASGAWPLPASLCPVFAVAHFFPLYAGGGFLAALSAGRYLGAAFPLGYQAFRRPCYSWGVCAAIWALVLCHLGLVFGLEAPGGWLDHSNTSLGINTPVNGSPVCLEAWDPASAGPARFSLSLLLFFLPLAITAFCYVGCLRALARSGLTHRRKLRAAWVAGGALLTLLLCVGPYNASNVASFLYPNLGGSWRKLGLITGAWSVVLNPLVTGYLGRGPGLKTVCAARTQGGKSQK

[11] = target: Mas-related G-protein coupled receptor member X3 (Homo sapiens) (UniProt Q96LB0); assay: RLU of MRGPRX3 at 1.0 µM in the […] PRESTO-Tango GPCRome screen; settings: Compound concentration 1.0 uM
Sequence of Mas-related G-protein coupled receptor member X3 (Homo sapiens) (Q96LB0 whole entry): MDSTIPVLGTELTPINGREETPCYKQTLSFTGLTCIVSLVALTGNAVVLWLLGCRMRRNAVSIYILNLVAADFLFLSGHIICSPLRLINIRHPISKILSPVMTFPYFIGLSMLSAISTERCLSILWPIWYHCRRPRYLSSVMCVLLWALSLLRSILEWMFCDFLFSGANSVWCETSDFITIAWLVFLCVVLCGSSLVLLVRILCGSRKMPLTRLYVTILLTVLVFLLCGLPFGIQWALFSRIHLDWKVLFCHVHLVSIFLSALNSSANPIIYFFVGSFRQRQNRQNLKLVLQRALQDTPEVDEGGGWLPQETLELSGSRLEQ

[12] = target: Probable G-protein coupled receptor 142 (Homo sapiens) (UniProt Q7Z601); assay: RLU of GPR142 at 1.0 µM in the […] PRESTO-Tango GPCRome screen; settings: Compound concentration 1.0 uM
[13] = target: Proteinase-activated receptor 3 (Homo sapiens) (UniProt O00254); assay: RLU of F2RL2 at 1.0 µM in the […] PRESTO-Tango GPCRome screen; settings: Compound concentration 1.0 uM
[14] = target: P2Y purinoceptor 14 (Homo sapiens) (UniProt Q15391); assay: RLU of P2RY14 at 1.0 µM in the […] PRESTO-Tango GPCRome screen; settings: Compound concentration 1.0 uM
[15] = target: Glucose-dependent insulinotropic receptor (Homo sapiens) (UniProt Q8TDV5); assay: RLU of GPR119 at 1.0 µM in the […] PRESTO-Tango GPCRome screen; settings: Compound concentration 1.0 uM
[16] = target: Opsin-5 (Homo sapiens) (UniProt Q6U736); assay: RLU of OPN5 at 1.0 µM in the […] PRESTO-Tango GPCRome screen; settings: Compound concentration 1.0 uM
[17] = target: Free fatty acid receptor 3 (Homo sapiens) (UniProt O14843); assay: RLU of FFA3 (GPR41) at 1.0 µM in the […] PRESTO-Tango GPCRome screen; settings: Compound concentration 1.0 uM
[18] = target: Gastrin-releasing peptide receptor (Homo sapiens) (UniProt P30550); assay: RLU of GRPR at 1.0 µM in the Aequorin PRESTO-Tango GPCRome screen; settings: Compound concentration 1.0 uM
[19] = target: Motilin receptor (Homo sapiens) (UniProt O43193); assay: RLU of MLNR at 1.0 µM in the […] PRESTO-Tango GPCRome screen; settings: Compound concentration 1.0 uM
[20] = target: G-protein coupled estrogen receptor 1 (Homo sapiens) (UniProt Q99527); assay: RLU of GPER at 1.0 µM in the […] PRESTO-Tango GPCRome screen; settings: Compound concentration 1.0 uM
[21] = target: Somatostatin receptor type 1 (Homo sapiens) (UniProt P30872); assay: RLU of SSTR1 at 1.0 µM in the […] PRESTO-Tango GPCRome screen; settings: Compound concentration 1.0 uM
Sequence of Somatostatin receptor type 1 (Homo sapiens) (P30872 whole entry): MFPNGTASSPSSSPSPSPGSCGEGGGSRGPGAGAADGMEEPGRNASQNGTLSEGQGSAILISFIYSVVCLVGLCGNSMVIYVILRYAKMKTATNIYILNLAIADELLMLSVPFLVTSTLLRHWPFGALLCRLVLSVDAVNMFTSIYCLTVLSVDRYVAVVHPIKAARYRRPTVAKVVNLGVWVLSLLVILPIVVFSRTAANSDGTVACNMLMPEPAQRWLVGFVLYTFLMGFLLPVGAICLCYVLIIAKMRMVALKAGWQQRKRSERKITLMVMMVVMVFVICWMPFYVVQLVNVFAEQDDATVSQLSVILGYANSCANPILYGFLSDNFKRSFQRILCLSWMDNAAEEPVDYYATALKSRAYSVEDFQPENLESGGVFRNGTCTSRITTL

[22] = target: G-protein coupled receptor 182 (Homo sapiens) (UniProt O15218); assay: RLU of GPR182 at 1.0 µM in the […] PRESTO-Tango GPCRome screen; settings: Compound concentration 1.0 uM
[23] = target: C-C chemokine receptor-like 2 (Homo sapiens) (UniProt O00421); assay: RLU of CCRL2 at 1.0 µM in the […] PRESTO-Tango GPCRome screen; settings: Compound concentration 1.0 uM
Sequence of C-C chemokine receptor-like 2 (Homo sapiens) (O00421 whole entry): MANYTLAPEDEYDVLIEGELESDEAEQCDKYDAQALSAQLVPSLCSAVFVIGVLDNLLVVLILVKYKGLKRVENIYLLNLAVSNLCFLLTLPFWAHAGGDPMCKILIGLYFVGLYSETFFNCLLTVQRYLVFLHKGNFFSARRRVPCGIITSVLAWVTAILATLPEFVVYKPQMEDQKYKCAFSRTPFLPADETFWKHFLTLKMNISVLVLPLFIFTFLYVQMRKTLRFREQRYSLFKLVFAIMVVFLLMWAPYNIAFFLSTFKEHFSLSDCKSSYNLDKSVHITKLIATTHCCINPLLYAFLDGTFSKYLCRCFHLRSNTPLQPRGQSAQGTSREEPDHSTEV

[24] = target: G-protein coupled receptor 6 (Homo sapiens) (UniProt P46095); assay: RLU of GPR6 at 1.0 µM in the […] PRESTO-Tango GPCRome screen; settings: Compound concentration 1.0 uM
Sequence of G-protein coupled receptor 6 (Homo sapiens) (P46095 whole entry): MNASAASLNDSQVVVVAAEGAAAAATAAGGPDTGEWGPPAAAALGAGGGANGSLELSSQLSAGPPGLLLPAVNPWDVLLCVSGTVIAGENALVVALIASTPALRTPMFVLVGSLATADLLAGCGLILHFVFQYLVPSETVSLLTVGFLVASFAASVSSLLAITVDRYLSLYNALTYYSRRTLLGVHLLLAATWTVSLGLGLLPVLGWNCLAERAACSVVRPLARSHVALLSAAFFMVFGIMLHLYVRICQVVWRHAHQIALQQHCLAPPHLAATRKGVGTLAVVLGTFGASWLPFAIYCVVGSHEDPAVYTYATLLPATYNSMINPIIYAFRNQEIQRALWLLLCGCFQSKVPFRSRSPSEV

[25] = target: Mas-related G-protein coupled receptor member X1 (Homo sapiens) (UniProt Q96LB2); assay: RLU of MRGPRX1 at 1.0 µM in the […] PRESTO-Tango GPCRome screen; settings: Compound concentration 1.0 uM
Sequence of Mas-related G-protein coupled receptor member X1 (Homo sapiens) (Q96LB2 whole entry): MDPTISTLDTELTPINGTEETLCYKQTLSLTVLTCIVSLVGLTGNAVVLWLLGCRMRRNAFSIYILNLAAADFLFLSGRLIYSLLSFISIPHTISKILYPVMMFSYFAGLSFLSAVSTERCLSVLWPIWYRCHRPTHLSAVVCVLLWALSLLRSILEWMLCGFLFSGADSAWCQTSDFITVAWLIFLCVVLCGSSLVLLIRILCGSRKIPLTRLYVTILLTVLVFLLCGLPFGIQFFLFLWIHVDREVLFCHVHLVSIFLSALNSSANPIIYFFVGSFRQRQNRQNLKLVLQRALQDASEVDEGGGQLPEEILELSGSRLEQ

[26] = target: Adhesion G protein-coupled receptor F5 (Homo sapiens) (UniProt Q8IZF2); assay: RLU of GPR116 at 1.0 µM in the […] PRESTO-Tango GPCRome screen; settings: Compound concentration 1.0 uM
[27] = target: C-C chemokine receptor type 4 (Homo sapiens) (UniProt P51679); assay: RLU of CCR4 at 1.0 µM in the […] PRESTO-Tango GPCRome screen; settings: Compound concentration 1.0 uM
Sequence of C-C chemokine receptor type 4 (Homo sapiens) (P51679 whole entry): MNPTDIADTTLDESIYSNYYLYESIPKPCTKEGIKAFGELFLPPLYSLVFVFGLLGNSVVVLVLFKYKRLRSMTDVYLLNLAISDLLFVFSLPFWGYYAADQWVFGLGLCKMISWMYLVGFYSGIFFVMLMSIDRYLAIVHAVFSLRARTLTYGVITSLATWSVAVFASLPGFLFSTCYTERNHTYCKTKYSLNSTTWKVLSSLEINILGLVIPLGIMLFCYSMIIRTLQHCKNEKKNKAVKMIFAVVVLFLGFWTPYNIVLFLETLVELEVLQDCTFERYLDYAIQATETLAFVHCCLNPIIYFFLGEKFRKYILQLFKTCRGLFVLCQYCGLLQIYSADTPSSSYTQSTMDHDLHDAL

[28] = target: Cysteinyl leukotriene receptor 2 (Homo sapiens) (UniProt Q9NS75); assay: RLU of CYSLTR2 at 1.0 µM in the […] PRESTO-Tango GPCRome screen; settings: Compound concentration 1.0 uM
[29] = target: Opsin-3 (Homo sapiens) (UniProt Q9H1Y3); assay: RLU of OPN3 at 1.0 µM in the […] PRESTO-Tango GPCRome screen; settings: Compound concentration 1.0 uM
[30] = RLU of HCTR2 at 1.0 µM in the Aequorin PRESTO-Tango GPCRome screen; settings: Homo sapiens; Compound concentration 1.0 uM
[31] = target: Probable G-protein coupled receptor 19 (Homo sapiens) (UniProt Q15760); assay: RLU of GPR19 at 1.0 µM in the […] PRESTO-Tango GPCRome screen; settings: Compound concentration 1.0 uM
[32] = target: P2Y purinoceptor 6 (Homo sapiens) (UniProt Q15077); assay: RLU of P2RY6 at 1.0 µM in the […] PRESTO-Tango GPCRome screen; settings: Compound concentration 1.0 uM
[33] = target: N-formyl peptide receptor 2 (Homo sapiens) (UniProt P25090); assay: RLU of FPR2 at 1.0 µM in the […] PRESTO-Tango GPCRome screen; settings: Compound concentration 1.0 uM
Sequence of N-formyl peptide receptor 2 (Homo sapiens) (P25090 whole entry): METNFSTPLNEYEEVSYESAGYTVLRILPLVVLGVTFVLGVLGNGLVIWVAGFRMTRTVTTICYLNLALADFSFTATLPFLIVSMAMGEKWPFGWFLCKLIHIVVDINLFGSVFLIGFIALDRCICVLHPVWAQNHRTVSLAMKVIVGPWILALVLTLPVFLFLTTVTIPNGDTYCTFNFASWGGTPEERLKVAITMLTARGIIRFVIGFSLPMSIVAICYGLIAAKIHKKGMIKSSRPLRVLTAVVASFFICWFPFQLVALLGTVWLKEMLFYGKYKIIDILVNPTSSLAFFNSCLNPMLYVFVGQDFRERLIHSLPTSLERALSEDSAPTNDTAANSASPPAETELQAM

[34] = target: Adenosine receptor A1 (Homo sapiens) (UniProt P30542); assay: RLU of ADORA1 at 1.0 µM in the […] PRESTO-Tango GPCRome screen; settings: Compound concentration 1.0 uM
Sequence of Adenosine receptor A1 (Homo sapiens) (P30542 whole entry): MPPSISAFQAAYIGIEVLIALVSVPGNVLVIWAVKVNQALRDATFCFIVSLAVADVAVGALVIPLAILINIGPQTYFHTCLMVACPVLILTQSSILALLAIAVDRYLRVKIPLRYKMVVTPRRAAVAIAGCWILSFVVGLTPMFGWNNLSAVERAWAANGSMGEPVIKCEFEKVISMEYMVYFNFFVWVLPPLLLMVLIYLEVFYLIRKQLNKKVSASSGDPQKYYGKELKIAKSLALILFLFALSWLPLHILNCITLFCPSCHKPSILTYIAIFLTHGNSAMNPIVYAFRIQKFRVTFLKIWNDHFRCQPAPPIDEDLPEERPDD

[35] = target: Melanocortin receptor 3 (Homo sapiens) (UniProt P41968); assay: RLU of MC3R at 1.0 µM in the […] PRESTO-Tango GPCRome screen; settings: Compound concentration 1.0 uM

In the case of `CCCCC(=O)N1CC2(C1)CN(c1ccccc1-c1nnn[nH]1)C2`, the RLU [1] was -1270, the RLU [2] was 5660 and the RLU [3] was 550. For the same compound, the RLU [4] was -3090, the RLU [5] was -212 and the RLU [6] was -187. For the same compound, the RLU [7] was 1350, the RLU [8] was 10800 and the RLU [9] was 1330. For the same compound, the RLU [10] was 2090, the RLU [11] was -916 and the RLU [12] was 2920. The RLU [13] was 463, the RLU [14] was -5260 and the RLU [15] was 272. The RLU [16] was 4000, the RLU [17] was 1880 and the RLU [18] was -1250. The RLU [19] was -570, the RLU [20] was -607 and the RLU [21] was -1070. For the same compound, the RLU [22] was 598, the RLU [23] was -1900 and the RLU [24] was 1.07e+06. The RLU [25] was 319, the RLU [26] was -663 and the RLU [27] was 6410. It also gave an RLU [28] of -3190, an RLU [29] of 338 and an RLU [30] of 2840. It also gave an RLU [31] of 1530, an RLU [32] of -7240 and an RLU [33] of 31.8. It also gave an RLU [34] of 6200 and an RLU [35] of 18.8.
